From patent US6808877B2, “Ligands for FPR class receptors that induce a host immune response to a pathogen or inhibit HIV infection” (priority 2000, dated 2004) come the findings set out here.

The test system of experiment [1] is HIV-1BAL-env. Type of experiment: cell-based. The settings on record: HOS/CD4/CCR5 cells co-expressing FPR.
The subject of experiment [2] is monocytes. Description: Monocyte migration in response to MIP-1β after pretreatment. Format: cell-based, human. The settings on record: fMLP 10^−6 M, 37° C. Here is the method:
Monocyte migration was assessed by a 48-well micro-chemotaxis chamber technique. 25 μl MIP-1β diluted in assay medium (RPMI 1640 with 1% BSA and 25 mM Hepes) was placed in the lower compartment of the chemotaxis chamber. 50 μl cell suspension (1×10^6 cell/ml) was placed in the upper compartment of the chamber. The upper and lower compartments were separated by a polycarbonate filter (5 μm pore-size, Neuroprobe, Cabin John, Md.). The chamber was incubated at 37° C. for 90 min in humidified air with 5% CO2. At the end of the incubation, the filter was removed, fixed and stained with Diff-Quik (Harlew, Gibbstown, N.J.). The migrated cells in three high-powered fields (HPF) obtained in triplicates (400×) were counted by light microscopy after coding the samples. The results are expressed as the net mean (±SD) number of migrated cells in 3 HPF after subtraction of spontaneous migration. At least three experiments were performed with same results.

Structures are written as SMILES.

As for `CSCC[C@H](NC=O)C(=O)N[C@@H](CC(C)C)C(=O)N[C@@H](Cc1ccccc1)C(=O)O` [fMLP, N-formyl-methionyl-leucyl-phenylalanine], the HIV-1BAL-env-mediated fusion entry in experiment [1] was “markedly inhibited”. The “chemotactic response to MIP-1β after pretreatment” value in experiment [2] is given as “progressively reduced chemotactic response”.
